Source: patent US20110086834A1, “ALKYNYL ALCOHOLS AS KINASE INHIBITORS” (AMGEN INC., priority 2008, published 2011)
pKi: −log10 of the molar value.

Each molecule was assayed against T1, NIK (Homo sapiens, UniProt Q99558) (assay: homogenous time resolved fluorescence (HTRF) assay for NIK Ki measurement). Conditions: truncated NIK (catalytic domain only), autophosphorylation; 10 nM enzyme; 20, 100, 200 or 500 μM ATP; room temperature, 2 hours; read-out: Ki activity in the homogenous time resolved fluorescence (HTRF) assay for NIK.
T1 construct: Both assays utilize a truncated form of NIK containing only the catalytic domain; made in house; host or cells: baculovirus expression system (insect cells implied)
T1 sequence (Q99558 400-655 limits assumed): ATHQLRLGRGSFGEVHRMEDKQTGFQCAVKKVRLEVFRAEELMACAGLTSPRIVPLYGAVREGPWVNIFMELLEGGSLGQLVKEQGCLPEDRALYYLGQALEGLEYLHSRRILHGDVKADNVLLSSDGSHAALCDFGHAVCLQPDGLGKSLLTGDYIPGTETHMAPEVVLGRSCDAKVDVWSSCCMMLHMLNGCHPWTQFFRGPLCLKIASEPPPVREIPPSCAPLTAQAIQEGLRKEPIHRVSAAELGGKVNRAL
Format: biochemical
Molecule `Cc1cc([C@](C)(O)C#Cc2ccc3c(c2)N(c2ncns2)CC3(C)C)no1` [Example 14, (R)-4-(3,3-dimethyl-1-(1,2,4-thiadiazol-5-yl)indolin-6-yl)-2-(5-methylisoxazol-3-yl)but-3-yn-2-ol] has a pKi greater than 6.00.
Work on `Nc1ncc(Cl)c(-c2c[nH]c3ccc(C#CC4(O)CCCCC4)cc23)n1` [Example 109, 1-(2-(3-(2-amino-5-chloropyrimidin-4-yl)-1H-indol-5-yl)ethynyl)cyclohexanol] yielded a pKi greater than 6.00.
Molecule `N#Cc1ccc(-c2[nH]c3ccc(C#CC4(O)CCCC4)cc3c2-c2ccnc(N)n2)cc1` [Example 94, 4-(3-(2-aminopyrimidin-4-yl)-5-(2-(1-hydroxycyclopentyl)ethynyl)-1H-indol-2-yl)benzonitrile] has a pKi greater than 6.00.
With `COCCOCCn1cc(-c2nc(N)ncc2Cl)c2cc(C#CC3(O)CCCCC3)ccc21` [Example 131, 1-(2-(3-(2-amino-5-chloropyrimidin-4-yl)-1-(2-(2-methoxyethoxy)ethyl)-1H-indol-5-yl)ethynyl)cyclohexanol] the pKi was greater than 6.00.
Molecule `COc1cc(Nc2cc(-n3ccc4ccc(C#CC5(O)CCCC5)cc43)ncn2)cc(OC)c1OC` [Example 258, 1-((1-(6-((3,4,5-tris(methyloxy)phenyl)amino)-4-pyrimidinyl)-1H-indol-6-yl)ethynyl)cyclopentanol] has a pKi of 4.52 to 6.00.
`CC1(C)CN(c2nc(N)ncc2F)c2cc(C#CC3(O)CCCC3)ccc21` [Example 65, 1-((1-(2-amino-5-fluoro-4-pyrimidinyl)-3,3-dimethyl-2,3-dihydro-1H-indol-6-yl)ethynyl)cyclopentanol] was tested, and the pKi was greater than 6.00.
`COCCOc1ccc(C#C[C@](C)(O)c2cc(C)on2)cc1Nc1nc(N)ncc1Cl` (single isomer, unassigned) [Example 178] was tested, and the pKi was 4.52 to 6.00.
In the case of `CC(=O)n1cc(-c2nc(N)ncc2Cl)c2cc(C#CC3(O)CCCC3)ccc21` [Example 120, 1-(3-(2-amino-5-chloropyrimidin-4-yl)-5-(2-(1-hydroxycyclopentyl)ethynyl)-1H-indol-1-yl)ethanone], the pKi was greater than 6.00.
In the case of `CC(C)(O)C#Cc1ccc2c(c1)N(c1nc(N)ncc1Cl)CC21CCS(=O)(=O)CC1` [Example 217, 4-(1-(2-Amino-5-chloro-4-pyrimidinyl)-1′,1′-dioxido-1,2,2′,3′,5′,6′-hexahydrospiro[indole-3,4′-thiopyran]-6-yl)-2-methyl-3-butyn-2-ol], the pKi was greater than 6.00.
`CC1(CCCO)CN(c2nc(N)ncc2Cl)c2cc(C#CC3(O)CCCC3)ccc21` (centres unmarked) [Example 63, 1-((1-(2-amino-5-chloro-4-pyrimidinyl)-3-(3-hydroxypropyl)-3-methyl-2,3-dihydro-1H-indol-6-yl)ethynyl)cyclopentanol] gave a pKi greater than 6.00.
Work on `Cc1nc(C(C)(O)C#Cc2ccc3c(c2)N(c2ccnc(N)n2)CC3)sc1C` (centres unmarked) [Example 285, 4-(1-(2-Amino-4-pyrimidinyl)-2,3-dihydro-1H-indol-6-yl)-2-(4,5-dimethyl-1,3-thiazol-2-yl)-3-Butyn-2-ol] yielded a pKi of 4.52 to 6.00.
For `COCCN(C)c1ccc(C#CC(C)(O)c2cc(C)on2)cc1Nc1nc(N)ncc1Cl` (centres unmarked) [Example 151, 4-(3-(2-Amino-5-chloropyrimidin-4-ylamino)-4-((2-methoxyethyl)(methyl)amino)phenyl)-2-(5-methylisoxazol-3-yl)but-3-yn-2-ol], the pKi was greater than 6.00.
For `CC(O)(C#Cc1ccc2c(c1)N(c1ccnc(N)n1)CC2)c1ncco1` (centres unmarked) [Example 291, 4-(1-(2-amino-4-pyrimidinyl)-2,3-dihydro-1H-indol-6-yl)-2-(1,3-oxazol-2-yl)-3-butyn-2-ol], the pKi was greater than 6.00.
With `Nc1ncc(OCCOCCN2CCOCC2)c(-c2c[nH]c3ccc(C#CC4(O)CCCC4)cc23)n1` [Example 231, 1-((3-(2-Amino-5-(2-(2-(4-morpholinyl)ethoxy)ethoxy)-4-pyrimidinyl)-1H-indol-5-yl)ethynyl)cyclopentanol] the pKi was greater than 6.00.
Work on `COCCOc1cnc(N)nc1-c1cn(CCOC)c2ccc(C#CC3(O)CCCC3)cc12` [Example 234, 1-((3-(2-Amino-5-(2-methoxyethoxy)-4-pyrimidinyl)-1-(2-methoxyethyl)-1H-indol-5-yl)ethynyl)cyclopentanol] yielded a pKi greater than 6.00.
For `C[C@@](O)(C#Cc1ccc2ncc(-c3nc(N)ncc3Cl)n2c1)c1nccs1` [Example 296, (2R)-4-(3-(2-amino-5-chloro-4-pyrimidinyl)imidazo[1,2-a]pyridin-6-yl)-2-(1,3-thiazol-2-yl)-3-butyn-2-ol], the pKi was greater than 6.00.
`COCCOc1cnc(N)nc1-c1c[nH]c2ccc(C#CC3(O)CCCC3)cc12` [Example 223, 1-((3-(2-Amino-5-(2-methoxyethoxy)-4-pyrimidinyl)-1H-indol-5-yl)ethynyl)cyclopentanol] gave a pKi greater than 6.00.
`CN1CCC2(CC1)CN(c1nc(N)ncc1F)c1cc(C#CC3(O)CCCC3)ccc12` [Example 186, 1-((1-(2-amino-5-fluoropyrimidin-4-yl)-1′-methylspiro[indoline-3,4′-piperidine]-6-yl)ethynyl)cyclopentanol] was tested, and the pKi was greater than 6.00.
`Nc1ncc(Cl)c(C2=CC3(CCOCC3)c3ccc(C#CC4(O)CCCC4)cc32)n1` [Example 219, 1-((3-(2-Amino-5-chloro-4-pyrimidinyl)-2′,3′,5′,6′-tetrahydrospiro[indene-1,4′-pyran]-5-yl)ethynyl)cyclopentanol] gave a pKi greater than 6.00.
For `Nc1ncc(Cl)c(-c2cn(C3CCNC3)c3ccc(C#CC4(O)CCCC4)cc23)n1` (centres unmarked) [Example 114, 1-(2-(3-(2-amino-5-chloropyrimidin-4-yl)-1-(pyrrolidin-3-yl)-1H-indol-5-yl)ethynyl)cyclopentanol], the pKi was greater than 6.00.
In the case of `COC(=O)C(C)(O)C#Cc1ccc2c(c1)N(c1nc(N)ncc1Cl)CC2(C)C` (centres unmarked) [Example 48, methyl 4-(1-(2-amino-5-chloro-4-pyrimidinyl)-3,3-dimethyl-2,3-dihydro-1H-indol-6-yl)-2-hydroxy-2-methyl-3-butynoate], the pKi was greater than 6.00.
`COCCOc1cnc(N)nc1-c1c[nH]c2ccc(C#CC(O)(c3cccc(F)c3)C(F)(F)F)cc12` (centres unmarked) [Example 236, 4-(3-(2-Amino-5-(2-methoxyethoxy)-4-pyrimidinyl)-1H-indol-5-yl)-1,1,1-trifluoro-2-(3-fluorophenyl)-3-butyn-2-ol] gave a pKi of 4.52 to 6.00.
`Cn1cncc1C(O)C#Cc1ccc2c(c1)N(c1nc(N)ncc1Cl)CC2(C)C` (single isomer, unassigned) [Example 42, (1R*)-3-(1-(2-amino-5-chloro-4-pyrimidinyl)-3,3-dimethyl-2,3-dihydro-1H-indol-6-yl)-1-(1-methyl-1H-imidazol-5-yl)-2-propyn-1-ol] gave a pKi of 4.52 to 6.00.
Work on `Cc1ccc(C(C)(O)C#Cc2ccc3c(c2)N(c2ccnc(N)n2)CC3)o1` (centres unmarked) [Example 275, 4-(1-(2-Amino-4-pyrimidinyl)-2,3-dihydro-1H-indol-6-yl)-2-(5-methyl-2-furanyl)-3-Butyn-2-ol] yielded a pKi greater than 6.00.
`Cc1cc(C(C)(O)C#Cc2ccc3c(c2)N(c2nc(N)ncc2Cl)CC32CCOCC2)no1` (racemic) [Example 210, (rac)-4-(1-(2-Amino-5-chloro-4-pyrimidinyl)-1,2,2′,3′,5′,6′-hexahydrospiro[indole-3,4′-pyran]-6-yl)-2-(5-methyl-3-isoxazolyl)-3-butyn-2-ol] showed a pKi greater than 6.00.
For `CC(O)(C#Cc1ccc2c(c1)N(c1nc(N)ncc1Cl)CC21CCOCC1)c1nccs1` (racemic) [Example 208, (rac)-4-(1-(2-Amino-5-chloro-4-pyrimidinyl)-1,2,2′,3′,5′,6′-hexahydrospiro[indole-3,4′-pyran]-6-yl)-2-(1,3-thiazol-2-yl)-3-butyn-2-ol], the pKi was greater than 6.00.
`CC(O)(C#Cc1ccc2c(c1)N(c1nc(N)ncc1Cl)CC2)c1ccccn1` (centres unmarked) [Example 308, 4-(1-(2-Amino-5-chloro-4-pyrimidinyl)-2,3-dihydro-1H-indol-6-yl)-2-(2-pyridinyl)-3-butyn-2-ol] showed a pKi greater than 6.00.
`CC1(CCC#N)CN(c2nc(N)ncc2F)c2cc(C#CC3(O)CCCC3)ccc21` (centres unmarked) [Example 67, 3-(1-(2-amino-5-fluoro-4-pyrimidinyl)-6-((1-hydroxycyclopentyl)ethynyl)-3-methyl-2,3-dihydro-1H-indol-3-yl)propanenitrile] was tested, and the pKi was greater than 6.00.
For `Cc1ccc(S(=O)(=O)n2nccc2C(C)(O)C#Cc2ccc3c(c2)N(c2ccnc(N)n2)CC3)cc1` (centres unmarked) [Example 76, 4-(1-(2-Amino-4-pyrimidinyl)-2,3-dihydro-1H-indol-6-yl)-2-(1-((4-methylphenyl)sulfonyl)-1H-pyrazol-5-yl)-3-butyn-2-ol], the pKi was greater than 6.00.
Work on `COCCN1Cc2cnc(N)nc2-c2c(n(C)c3ccc(C#CC4(O)CCCC4)cc23)C1=O` [Example 246, 2-Amino-1′-((1-hydroxycyclopentyl)ethynyl)-6-(2-methoxyethyl)-8-methyl-5,8-dihydropyrimido[4′,5′:5,6]azepino[3,4-b]indol-7(6H)-one] yielded a pKi greater than 6.00.
Work on `CNc1ncc(Cl)c(-c2c[nH]c3ccc(C#CC4(O)CCCC4)cc23)n1` [Example 112, 1-(2-(3-(5-chloro-2-(methylamino)pyrimidin-4-yl)-1H-indol-5-yl)ethynyl)cyclopentanol] yielded a pKi greater than 6.00.
`CC(O)(C#Cc1ccc2c(c1)N(c1ncns1)CC2(C)C)c1nccs1` (centres unmarked) [Example 12, 4-(3,3-dimethyl-1-(1,2,4-thiadiazol-5-yl)indolin-6-yl)-2-(thiazol-2-yl)but-3-yn-2-ol] gave a pKi greater than 6.00.
`CC(O)(C#Cc1ccc2c(c1)N(c1nc(N)ncc1Cl)CC2(C)C)c1ncco1` (centres unmarked) [Example 305, 4-(1-(2-Amino-5-chloro-4-pyrimidinyl)-3,3-dimethyl-2,3-dihydro-1H-indol-6-yl)-2-(1,3-oxazol-2-yl)-3-Butyn-2-ol] was tested, and the pKi was greater than 6.00.
In the case of `CC(O)(C#Cc1ccc2c(c1)N(c1nc(N)ncc1Cl)CC2)c1cc(F)ccn1` (centres unmarked) [Example 11, 4-(1-(2-amino-5-chloropyrimidin-4-yl)indolin-6-yl)-2-(4-fluoropyridin-2-yl)but-3-yn-2-ol], the pKi was 4.52 to 6.00.
In the case of `CN1CCC2(C1)CN(c1nc(N)ncc1Cl)c1cc(C#CC3(O)CCCC3)ccc12` (single isomer, unassigned) [Example 192, 1-(((3S*)-1-(2-Amino-5-chloro-4-pyrimidinyl)-1′-methyl-1,2-dihydrospiro[indole-3,3′-pyrrolidin]-6-yl)ethynyl)cyclopentanol], the pKi was greater than 6.00.
